Reference: patent US12679843B2, “Pyrrolopyrimidine amines as complement inhibitors” (BioCryst Pharmaceuticals, Inc., priority 2020, dated 2026)

Each compound was assayed against Factor D (Homo sapiens, UniProt P00746) (assay: Factor D esterolytic assay (Z-Lys-SBzl thioester substrate, DTNB, 405 nm)). Details: substrate Z-Lys-SBzl 1.29 mM, 100 mM HEPES, 500 mM NaCl, pH 7.5, 10% DMSO, tested a minimum of three times.
Type: biochemical
In short: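 Human Factor D hydrolysis of Z-Lys-SBzl (1.29 mM) monitored at 405 nm via DTNB thiol detection for 600 s, 690 nm background subtracted. Buffer 100 mM HEPES, 500 mM NaCl, pH 7.5, 10% DMSO; substrate added immediately or after room-temperature preincubation. IC50 from percent inhibition of rate, at least three tests.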

Factor D, sequence (P00746 26-253): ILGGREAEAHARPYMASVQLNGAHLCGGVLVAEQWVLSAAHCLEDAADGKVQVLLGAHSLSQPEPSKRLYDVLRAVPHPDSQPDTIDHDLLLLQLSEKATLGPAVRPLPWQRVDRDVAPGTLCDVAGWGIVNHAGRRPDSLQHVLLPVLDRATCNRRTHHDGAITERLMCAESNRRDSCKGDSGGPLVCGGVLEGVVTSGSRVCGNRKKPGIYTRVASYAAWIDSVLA

How did the IC50 turn out when `Nc1c(CO)cnc2c1ccn2CC(=O)N1[C@@H]2C[C@@H]2C[C@H]1C(=O)Nc1cccc(Br)n1` [Compound 157a, (1R,3S,5R)-2-(2-(4-amino-5-(hydroxymethyl)-1H-pyrrolo[2,3-b]pyridin-1-yl)acetyl)-N-(6-bromopyridin-2-yl)-2-azabicyclo[3.1.0]hexane-3-carboxamide] was run?
The IC50 was 100 to 1000 nM.

For `Nc1ncnc2c1c(F)cn2CC(=O)N1C[C@H](F)C[C@H]1C(=O)NCc1cccc(Cl)c1F` [Compound 125d, (2S,4R)-1-(2-(4-amino-5-fluoro-7H-pyrrolo[2,3-d]pyrimidin-7-yl)acetyl)-N-(3-chloro-2-fluorobenzyl)-4-fluoropyrrolidine-2-carboxamide], which IC50 is on record?
Its IC50 is 100 to 1000 nM.

With `Cc1ccc(Br)nc1NC(=O)[C@@H]1C[C@@]2(C)C[C@H]2N1C(=O)Cn1c2ccc(C(F)(F)F)cc2c2c(N)ncnc21` [Compound 11f, (1R,3S,5R)-2-(2-(4-amino-6-(trifluoromethyl)-9H-pyrimido[4,5-b]indol-9-yl)acetyl)-N-(6-bromo-3-methylpyridin-2-yl)-5-methyl-2-azabicyclo[3.1.0]hexane-3-carboxamide] as the compound, how does the IC50 read?
Its IC50 is < 100 nM.

With `CC(=O)Nc1ccc2c(c1)c1c(N)ncnc1n2CC(=O)N1[C@H](C(=O)Nc2cccc(Br)n2)C[C@@]2(C)C[C@@H]12` [Compound 185a, (1R,3S,5R)-2-(2-(6-acetamido-4-amino-9H-pyrimido[4,5-b]indol-9-yl)acetyl)-N-(6-bromopyridin-2-yl)-5-methyl-2-azabicyclo[3.1.0]hexane-3-carboxamide] as the compound, how does the IC50 read?
The IC50 was < 100 nM.

Which IC50 does the source give for `COc1cc2c(cc1F)c1c(N)ncnc1n2CC(=O)N1[C@H](C(=O)Nc2cccc(Br)n2)C[C@@]2(C)C[C@@H]12` [Compound 388a, (1R,3S,5R)-2-(2-(4-amino-6-fluoro-7-methoxy-9H-pyrimido[4,5-b]indol-9-yl)acetyl)-N-(6-bromopyridin-2-yl)-5-methyl-2-azabicyclo[3.1.0]hexane-3-carboxamide] here?
Its IC50 is < 100 nM.

How did the IC50 turn out when `C[C@@]12C[C@@H](C(=O)Nc3cccc(Br)n3)N(C(=O)Cn3c4ccc(Br)nc4c4c(N)ncnc43)[C@@H]1C2` [Compound 292a, (1R,3S,5R)-2-(2-(4-amino-6-bromo-9H-pyrido[2′,3′:4,5]pyrrolo[2,3-d]pyrimidin-9-yl)acetyl)-N-(6-bromopyridin-2-yl)-5-methyl-2-azabicyclo[3.1.0]hexane-3-carboxamide] was run?
The IC50 was < 100 nM.

For `COc1ccc2c(c1)c1c(N)ncnc1n2CC(=O)N1[C@H](C(=O)Nc2cccc(Br)n2)C[C@@]2(C)C[C@@H]12` [Compound 159a, (1R,3S,5R)-2-(2-(4-amino-6-methoxy-9H-pyrimido[4,5-b]indol-9-yl)acetyl)-N-(6-bromopyridin-2-yl)-5-methyl-2-azabicyclo[3.1.0]hexane-3-carboxamide], which IC50 is on record?
Its IC50 is < 100 nM.

How did the IC50 turn out when `COc1cc(F)cc2c3c(N)ncnc3n(CC(=O)N3[C@H](C(=O)Nc4cccc(Br)n4)C[C@@]4(C)C[C@@H]34)c12` [Compound 281a, (1R,3S,5R)-2-(2-(4-amino-6-fluoro-8-methoxy-9H-pyrimido[4,5-b]indol-9-yl)acetyl)-N-(6-bromopyridin-2-yl)-5-methyl-2-azabicyclo[3.1.0]hexane-3-carboxamide] was run?
The IC50 was < 100 nM.

With `Nc1ncnc2c1ccn2CC(=O)N1C[C@H](F)C[C@H]1C(=O)Nc1cccc(Br)n1` [Compound 5e, (2S,4R)-1-(2-(4-amino-7H-pyrrolo[2,3-d]pyrimidin-7-yl)acetyl)-N-(6-bromopyridin-2-yl)-4-fluoropyrrolidine-2-carboxamide] as the compound, how does the IC50 read?
Its IC50 is 100 to 1000 nM.

Which IC50 does the source give for `COC(=O)c1ccc2c3c(N)ncnc3n(CC(=O)N3[C@@H]4C[C@@H]4C[C@H]3C(=O)Nc3cccc(Br)n3)c2c1` [Compound 41f, methyl 4-amino-9-(2-((1R,3S,5R)-3-((6-bromopyridin-2-yl)carbamoyl)-2-azabicyclo[3.1.0]hexan-2-yl)-2-oxoethyl)-9H-pyrimido[4,5-b]indole-7-carboxylate] here?
Its IC50 is < 100 nM.

How did the IC50 turn out when `Nc1ncnc2c1c1cc(C(F)(F)F)ccc1n2CC(=O)N1C[C@H](F)C[C@H]1C(=O)NCc1cccc(Cl)c1F` [Compound 25a, (2S,4R)-1-(2-(4-amino-6-(trifluoromethyl)-9H-pyrimido[4,5-b]indol-9-yl)acetyl)-N-(3-chloro-2-fluorobenzyl)-4-fluoropyrrolidine-2-carboxamide] was run?
The IC50 was < 100 nM.

Which IC50 does the source give for `Nc1ncnc2c1c1ccc(O)cc1n2CC(=O)N1[C@@H]2C[C@@H]2C[C@H]1C(=O)Nc1cccc(Br)n1` [Compound 167a, (1R,3S,5R)-2-(2-(4-amino-7-hydroxy-9H-pyrimido[4,5-b]indol-9-yl)acetyl)-N-(6-bromopyridin-2-yl)-2-azabicyclo[3.1.0]hexane-3-carboxamide] here?
Its IC50 is < 100 nM.

How did the IC50 turn out when `Cc1cc(C(F)(F)F)cc2c3c(N)ncnc3n(CC(=O)N3[C@@H]4C[C@@H]4C[C@H]3C(=O)Nc3cncc(C(F)(F)F)n3)c12` [Compound 348c, (1R,3S,5R)-2-(2-(4-amino-8-methyl-6-(trifluoromethyl)-9H-pyrimido[4,5-b]indol-9-yl)acetyl)-N-(6-(trifluoromethyl)pyrazin-2-yl)-2-azabicyclo[3.1.0]hexane-3-carboxamide] was run?
The IC50 was < 100 nM.
